Tests used:
Minimal Clonic Seizure = assay: Minimal Electroshock / Psychomotor (Minimal Clonic) Seizure test (MCS); assay type: in vivo, mice; conditions: for anticonvulsant activity against MCS, complex versus individual constituents: mouse, in vivo
Description: (§1) Anticonvulsant activities were determined by the National Institutes of Health-National Institute of Neurological Disorders and Stroke-Antiepileptic Drug Development program for the detection and evaluation of compounds as anticonvulsants agents. Compounds were suspended in polyethylene glycol prior to injection into male Carworth Farms #1 mice. In Phase I studies, identification of anti-convulsant activity, test compounds were given intraperitonealy (ip) at 57, 188 and 570 milligrams-per-kilogram (mg/kg) of body mass, and protection against Maximal Electroshock (MES), Minimal Electroshock (MCS) and/or Metrazol (scMET) induced seizures was determined 30 min and 4 h later. All statistics were obtained by Probit analysis.
This test was designed to detect compounds that are missed with the MES tests which employ a larger current of 50 mA. The delivery of a less intense electric stimulation which produces less intense stimulation of the CNS (Central Nervous System) and brain inflammation than the MES test, via corneal electrodes of 6 Hz, 32 mA or slightly higher current, for 3 s, is used to produce psychomotor seizures, following instillation of a drop of 0.9% saline solution prior to this application of electric current. Abolition of the visual stereotypic behavior characterized as minimal automatist behaviors, similar to the aura that human patients experience during psychomotor seizure, is defined as antipsychomotor seizure activity.

[1] = tested on: Maximal Electroshock (MES) induced seizures; assay: Maximal Electroshock Seizure (MES) test; assay type: in vivo; conditions: mice ip 57, 188, or 570 µmg/kg; challenge 0.5 and 4 h after treatment
Description: as §1, with “([…])” for “(ip) at 57, 188 and 570 milligrams-per-kilogram (mg/kg)”
Maximal electroshock seizure (MES) were elicited with a 60 cycles alternating current of 50 mA, five to seven times that necessary to elicit minimal electroshock seizures, delivered for 0.2 s via corneal electrodes. A drop of 0.9% saline solution was instilled into both eyes prior to application of electrodes in order to prevent death. Abolition of the hind limb tonic extension component of seizure is defined as anticonvulsant activity.

[2] = tested on: Metrazol (scMET) induced seizures; assay: Subcutaneous Metrazol seizure threshold test (scMET), mice; assay type: in vivo
Description: Anticonvulsant activities were determined by the National Institutes of Health-National Institute of Neurological Disorders and Stroke-Antiepileptic Drug Development program for the detection and evaluation of compounds as anticonvulsants agents. Compounds were suspended in polyethylene glycol prior to injection into male Carworth Farms #1 mice. […] All statistics were obtained by Probit analysis.
A dose of Pentylenetetrazol, a potent CNS stimulant, which produces seizures in greater than 97% of treated mice, at 85 mg/kg of body mass, was administered s.c. as a 0.5% saline solution at the posterior neck midline. […] Failure to observe even a threshold seizure, a single episode of clonic spasms of at least five second duration, is defined as anticonvulsant activity.

MET-induced seizures = assay: Metrazol seizure test, oral treatment of rats; assay type: in vivo; conditions: rats oral 94 μmol/kg
[3] = Rotating rod test (Rotorod Toxicity), mice; assay type: in vivo; conditions: for Rotorod Toxicity: challenge 0.5 and 4 h
Description: (§2) This qualitative test was used to evaluate ‘neurotoxicity’, central nervous system stimulation or depression. Depression of CNS activity is a common feature of all antiepileptic drugs. Mice or rats are placed on a 1 inch diameter knurled plastic rod rotating at 6 revolutions per min. Normal mice and rats can remain on a rod rotating at this speed indefinitely. […] It may be attributed to CNS depression due to sedative and/or hypnotic activities, or a state of eminent death, due to medullary paralysis at high doses, a common unwanted side effect caused by high doses of all anticonvulsant drugs.

[4] = Rotating rod test (Rotorod Toxicity), rats; assay type: in vivo; conditions: rats oral 94 μmol/kg; challenge 0.25, 0.5, 1, 2, and 4 h
Description: as §2

zebrafish larvae = assay: Toxicological evaluation (Maximum Tolerated Concentration) in zebrafish larvae; assay type: in vivo; conditions: 100 µM; 24 h exposure of larvae
Description: (§3) All chemicals were firstly dissolved in dimethylsulfoxide, DMSO 99.5% (GC) Sigma-Aldrich), and then diluted in embryo medium E3 (5 mM NaCl, 0.17 mM KCl, 0.33 mM CaCl2, 0.33 mM Mg2SO4, 10-5% methylene blue).
(§4) During the course of the experiments, transgenic zebrafish of the fli-1: EGFP lines were used. Once the fertilized eggs were collected, they were reared in embryo medium E3 in an incubator at 28° C. The 20 hours post fertilization (hpf), 1-phenyl-2-thiourea (PTU) (Sigma-10×(0.03%)) was added to larvae's medium in 1:9 proportion to prevent the formation of melanophores in zebrafish embryos and larvae [Karlsson, J., von Hofsten, J. and Olsson, P. Mar. Biotechnol., 2001, 3, 522-527].
The Maximum Tolerated Concentration (MTC) was defined as the maximum concentration at which no death or signs of toxicity (in the circulatory system) were observed.
The MTC in the fish water was initially determined by incubating zebrafish larvae resulting from 4 days post fertilization (dpf) with compounds assayed in E3. During 24 hours, 5 larvae of zebrafish per well were placed in a tissue culture in 24 well plates using tested compounds at 10 μM, 30 μM and 100 μM concentration in the medium. Following the 24 h period of incubation, the characteristics of the zebrafish larvae were examined. The MTC were determined in treated groups at 5 dpf after 24 h exposure to the tested drugs.

leukocyte migration = assay: Anti-inflammatory tail section assay, leukocyte migration in zebrafish; assay type: in vivo
Description: as §3, §4
The experimental corroboration of anti-inflammatory activity was done by using a new in vivo test development using zebrafish biological material [Siverio-Mota, D., de Witte, P. et al, 2009, in preparation]. The principal aspects of this new biological assay are the following. First, ten larvae from 4 dpf were used per treated and control groups. In each case, the MTC was used as the assay concentration and indomethacin (Merck Sharp & Dohme) at 30 μM was used as control group. These larvae were placed in wells of a 24 wells tissue culture plate at assay's concentrations in ImL final volume. After one hour, the larvae were anesthetized by immersion in E3 containing tricaine (Westerfield, M., The Zebrafish Book: A Guide for the Laboratory Use of Zebrafish (Brachydanio rerio). 1995, Eugene, Oreg., University of Oregon Press), the complete section of the tail was performed with a sterile scalpel. Once tails were cut, zebrafish were placed again in a 24 wells tissue culture plate at assay's concentrations together with 10 μg/mL solution of lipopolysaccharide to stimulate the leukocyte migration. The temperature of incubation was kept from 20 to 22° C. […]
Anti-inflammatory activity was evaluated following the steps described above. Leukocyte migration to damaged zone (end tail) was observed and evaluated as the parameter determining the anti-inflammatory activity of the tested compounds. […]

For c1cnc2c(c1)ccc1cccnc12 [phenanthroline, 1,10-phenanthroline, reference compound], the “anticonvulsant activity against MCS, complex versus individual constituents” value (Minimal Clonic Seizure) was “no anticonvulsant of activity”.
For CCCC(CCC)C(=O)[O-].CCCC(CCC)C(=O)[O-].[Cu+2].c1cnc2c(c1)ccc1cccnc12 [Compound 4, bis-(2-propylpentanoato)(1,10-phenanthroline)copper(II)], the “anticonvulsant activity, MES challenge” value [1] was “inactive”, the “TPE (Time to Peak Effect)” value (Minimal Clonic Seizure; 18 μmol/kg) was 2 h and the “activity against Minimal Clonic seizure” value (Minimal Clonic Seizure; 18 mol/kg, challenge times 1, 2, and 4 h) was “activity was found”. The “ED50, Minimal Clonic seizure” value (Minimal Clonic Seizure; mice) was 8 µmol/kg, the “toxicity observed in MCS test” value (Minimal Clonic Seizure; mice 188 μmol/kg, 0.25, 0.5, 1, and 2 h) was “inability to grasp the rotating rod” and the “deaths in MCS test” value (Minimal Clonic Seizure; mice 188 μmol/kg, 2 h challenge time) was “three deaths”. For the same molecule, the “deaths in MCS test” value (Minimal Clonic Seizure; mice 188 μmol/kg, before the 4 h challenge) was “all mice died”, the “activity against Minimal Clonic seizure” value (Minimal Clonic Seizure; mice 188 μmol/kg, challenge 0.25, 0.5, 1, and 2 h) was “active” and the “toxicity in MCS test” value (Minimal Clonic Seizure; mice 2.25, 4.5, 9, 18, and 36 μmol/kg, 2 h) was “absence of toxicity”. For the same molecule, the “protection against the Minimal Clonic seizure” value (Minimal Clonic Seizure; mice 2.25, 4.5, 9, 18, and 36 μmol/kg, challenge at 2 h) was “dose-related increase in protection”, the “deaths in MCS test” value (Minimal Clonic Seizure; mice ip 94 μmol/kg, after the 2 h challenge) was “two deaths” and the “protection against Minimal Clonic Seizure” value (Minimal Clonic Seizure; mice ip 94 μmol/kg, challenge 0.25, 0.5, 1, and 2 h) was “protected”. For the same molecule, the “toxicity observed in MCS test” value (Minimal Clonic Seizure; mice ip 94 μmol/kg, most mice) was “Minimal motor impairment”, the “deaths in MCS test” value (Minimal Clonic Seizure; mice ip 94 μmol/kg, prior to challenge at 4 h) was “All treated mice died” and the “anticonvulsant activity against MCS, complex versus individual constituents” value (Minimal Clonic Seizure) was “μmolar level”. The “deaths in scMET test” value ([2]; 188 μmol/kg at 4 h challenge and 570 μmol/kg at 0.5 challenge time) was “deaths occurring without seizure”, the “anticonvulsant activity, scMET seizure model” value ([2]; mice 5.7, 19, 57, 188, and 570 μmol/kg, challenge 0.5 and 4 h) was “inactive” and the “adverse effects in MET test” value (MET-induced seizures) was “continuous seizure activity, death following continuous seizure activity, or tonic seizure extension”. For the same molecule, the “protection against MET-induced seizures” value (MET-induced seizures; challenge 0.25, 0.5, 1, 2, and 4 h) was “not protective”, the “deaths in Rotorod test” value ([3]; mice 188 μmol/kg, 4 h challenge time) was “three deaths” and the “Rotorod Toxicity” value ([3]; mice 188 μmol/kg, impaired ability to grasp the rotating rod) was “observed”. The “Rotorod Toxicity” value ([3]; mice 570 μmol/kg) was “impaired ability to grasp the rotating rod, sedation, and deaths without seizure”, the “Rotorod Toxicity” value ([3]; mice ip 5.7, 19, and 57 μmol/kg) was “not observed” and the “Rotorod Toxicity” value [4] was “failed to evidence Rotorod Toxicity”.
For copper acetate [reference compound], the “anticonvulsant activity against MCS, complex versus individual constituents” value (Minimal Clonic Seizure) was “no anticonvulsant of activity”.
With CCCC(CCC)C(=O)[O-].CCCC(CCC)C(=O)[O-].[Mg+2] [Compound 7] the toxicity in zebrafish (zebrafish larvae) was “did not show any toxicity” and the “anti-inflammatory result, ranking in words” value (leukocyte migration; zebrafish) was “best result”.
In the case of CCCC(CCC)C(=O)[O-].CCCC(CCC)C(=O)[O-].CCCC(CCC)C(=O)[O-].CCCC(CCC)C(=O)[O-].[Cu+2].[Cu+2] [Compound 3, Tetrakis-μ-2-propylpentanoato dicopper(II)], the “percentage of relative leukocyte's migration” value (leukocyte migration; zebrafish larvae, tail section + lipopolysaccharide, tested at MTC, 7 h) is reported as 60%.
With [Cl][Cu][Cl] [copper chloride, reference compound] the “anticonvulsant activity against MCS, complex versus individual constituents” value (Minimal Clonic Seizure) was “no anticonvulsant of activity”.
With CCCC(CCC)C(=O)O [sodium valproate, reference compound] the ED50 (Minimal Clonic Seizure; Mus musculus, same paradigm, sodium valproate) was 2800 µmol/kg.
In the case of COc1ccc2c(c1)c(CC(=O)O)c(C)n2C(=O)c1ccc(Cl)cc1 [indomethacin, reference compound], the “percentage of relative leukocyte's migration” value (leukocyte migration; positive control, indomethacin at 30 μM) is reported as 20%.
With CCCC(CCC)C(=O)O [valproic acid, 2-propylpentanoic acid] the “anticonvulsant activity against MCS, complex versus individual constituents” value (Minimal Clonic Seizure) was “much less potency”.
